Assay results published in patent US7723523B2, “Tetrahydropyridothiophenes” (4SC AG, priority 2004, dated 2010).

How the values were obtained:
[1] = system: RKO colon adenocarcinoma cells (RKOp27) arrested by expression of ectopic p27Kip1; test: Alamar Blue cell viability assay on RKOp27 cells arrested by Ponasterone A-induced p27Kip1 (cell cycle specific mode of action); assay type: cell-based; settings: Homo sapiens, RKOp27, 72 h, cells arrested by p27Kip1 induced with 10 μM Ponasterone A, 72 hours incubation, read-out: IC50 RKO p27 arrested
Description: To determine the cell cycle specific mode of action, subclones of RKO colon adenocarcinoma cells (RKOp27 or RKOp21 as described by Schmidt et al. in Oncogene 19, 2423-2429; 2000) are seeded into 96 well flat bottom plates at a density of 16000 cells per well in a volume of 50 μl per well in DMEM growth medium with 10% FCS containing 10 μM Ponasterone A. 24 hours after seeding 50 μl each of the compound dilutions in DMEM are added into each well of the 96 well plate. Each compound dilution is tested as quadruplicates. Wells containing untreated control cells are filled with 50 μl DMEM containing 1% DMSO. The cells are then incubated with the substances for 72 hours at 37° C. in a humidified atmosphere containing 5% carbon dioxide. To determine the viability of the cells, 10 μl of an Alamar Blue solution (Biosource) are added and the fluorescence is measured at an extinction of 544 nm and an emission of 590 nm. For the calculation of the cell viability the emission value from untreated cells is set as 100% viability and the emission rates of treated cells are set in relation to the values of untreated cells. Viabilities are expressed as % values. Viability is compared of proliferating cells grown in the absence of the inducer Ponasterone A, versus viability of cells arrested by the expression of ectopic p27Kip1 induced by Ponasterone A. The data of this experimental setting are summarized in table A (2nd column).

[2] = system: RKO (RKOp27) human colon adenocarcinoma cells; test: Alamar Blue cell viability assay, anti-proliferative/cytotoxic activity on proliferating RKOp27 cells; assay type: cell-based; settings: absence of Ponasterone A, 72 hours incubation, read-out: IC50 RKO p27 proliferating
Description: The anti-proliferative/cytotoxic activity of the compounds described herein, can be tested on subclones of RKO (RKOp27) human colon adenocarcinoma cells (Schmidt et al., Oncogene 19, 2423-2429; 2000) using the Alamar Blue cell viability assay (described in O'Brien et al. Eur J Biochem 267, 5421-5426, 2000). The compounds are dissolved as 20 mM solutions in dimethylsulfoxide (DMSO) and subsequently diluted in semi-logarithmic steps. DMSO dilutions are further diluted 1:100 into Dulbecco's modified Eagle's medium (DMEM) containing 10% fetal calf serum to a final concentration twice as much as the final concentration in the test. RKO subclones are seeded into 96 well flat bottom plates at a density of 4000 cells per well in a volume of 50 μl per well. 24 hours after seeding 50 μl each of the compound dilutions in DMEM are added into each well of the 96 well plate. Each compound dilution is tested as quadruplicates. Wells containing untreated control cells are filled with 50 μl DMEM containing 1% DMSO. The cells are then incubated with the substances for 72 hours at 37° C. in a humidified atmosphere containing 5% carbon dioxide. To determine the viability of the cells, 10 μl of an Alamar Blue solution (Biosource) are added and the fluorescence is measured at an extinction of 544 nm and an emission of 590 nm. For the calculation of the cell viability the emission value from untreated cells is set as 100% viability and the emission rates of treated cells are set in relation to the values of untreated cells. Viabilities are expressed as % values.
The corresponding IC50 values of the compounds for anti-proliferative/cytotoxic activity are determined from the concentration-effect curves.
Representative IC50 values for anti-proliferation/cytotoxicity determined in the aforementioned assay are described in the table A (1st column), in which the numbers of the compound correspond to the numbers of the examples.

| IC50 [1] [µM] | SMILES | IC50 [2] [µM] |
| --- | --- | --- |
| ≥ 100 | CCOc1ccccc1/C=C/C(=O)Nc1sc2c(c1C#N)CCN(C(=O)OCc1ccncc1)C2 [Example 238, 3-Cyano-2-[(E)-3-(2-ethoxy-phenyl)-allanoylamino]-4,7-dihydro-5H-thieno[2,3-c]pyridine-6-carboxylic acid pyridin-4-ylmethyl ester] | ≤ 2 |
| ≥ 100 | COCC(=O)N1CCc2c(sc(NC(=O)/C=C/c3ccccc3OC)c2C#N)C1 [Example 210, (E)-N-[3-Cyano-6-(2-methoxy-ethanoyl)-4,5,6,7-tetrahydro-thieno[2,3-c]pyridin-2-yl]-3-(2-methoxy-phenyl)-acrylamide] | ≤ 2 |
| ≥ 100 | COCCOC(=O)N1CCc2c(sc(NC(=O)/C=C/c3cccnc3)c2C#N)C1 [Example 167, 3-Cyano-2-((E)-3-pyridin-3-yl-allanoylamino)-4,7-dihydro-5H-thieno[2,3-c]pyridine-6-carboxylic acid 2-methoxy-ethyl ester] | ≤ 2 |
| ≥ 100 | N#Cc1c(NC(=O)/C=C/c2ccccc2Cl)sc2c1CCN(C(=O)CCc1cccnc1)C2 [Example 215, (E)-3-(2-Chloro-phenyl)-N-[3-cyano-6-(3-pyridin-3-yl-propanoyl)-4,5,6,7-tetrahydro-thieno[2,3-c]pyridin-2-yl]-acrylamide] | ≤ 2 |
| ≥ 100 | N#Cc1c(NC(=O)/C=C/c2cccnc2)sc2c1CCN(C(=O)OCc1ccncc1)C2 [Example 160, 3-Cyano-2-((E)-3-pyridin-3-yl-allanoylamino)-4,7-dihydro-5H-thieno[2,3-c]pyridin-6-carboxylic acid pyridin-4-ylmethyl ester] | ≤ 2 |
| ≥ 100 | CCOc1ccccc1/C=C/C(=O)Nc1sc2c(c1C#N)CCN(C(=O)COC)C2 [Example 223, (E)-N-[3-Cyano-6-(2-methoxy-ethanoyl)-4,5,6,7-tetrahydro-thieno[2,3-c]pyridin-2-yl]-3-(2-ethoxy-phenyl)-acrylamide] | ≤ 2 |
| ≥ 100 | N#Cc1c(NC(=O)/C=C/c2cccnc2)sc2c1CCN(C(=O)OCCN1CCOCC1)C2 [Example 156, 3-Cyano-2-((E)-3-pyridin-3-yl-allanoylamino) 4,7-dihydro-5H-thieno[2,3-c]pyridine-6-carboxylic acid 2-morpholin-4-yl-ethyl ester] | ≤ 2 |
| ≥ 100 | N#Cc1c(NC(=O)/C=C/c2ccccc2)sc2c1CCN(C(=O)CCc1c[nH]c3ccccc13)C2 [Example 171, (E)-N-[3-Cyano-6-(3-1H-indol-3-yl-propanoyl)-4,5,6,7-tetrahydro-thieno[2,3-c]pyridin-2-yl]-3-phenyl-acrylamide] | ≤ 2 |
| ≥ 100 | N#Cc1c(NC(=O)/C=C/c2cccnc2)sc2c1CCN(C(=O)OCc1cccnc1)C2 [Example 150, 3-Cyano-2-((E)-3-pyridin-3-yl-allanoylamino)-4,7-dihydro-5H-thieno[2,3-c]pyridine-6-carboxylic acid pyridin-3-ylmethyl ester] | ≤ 2 |

More lines, now with the values behind:

| SMILES | IC50 [1] [µM] | IC50 [2] [µM] |
| --- | --- | --- |
| CCSC(=O)N1CCc2c(sc(NC(=O)/C=C/c3ccccc3Cl)c2C#N)C1 [Example 48, 2-[(E)-3-(2-Chloro-phenyl)-allanoylamino]-3-cyano-4,7-dihydro-5H-thieno[2,3-c]pyridine-6-carbothioic acid S-ethyl ester] | ≥ 100 | ≤ 2 |
| CCOC(=O)N1CCc2c(sc(NC(=O)/C=C/c3ccc(Cl)o3)c2C#N)C1 [Example 78, 2-[(E)-3-(5-Chloro-furan-2-yl)-allanoylamino]-3-cyano-4,7-dihydro-5H-thieno[2,3-c]pyridine-6-carboxylic acid ethyl ester] | ≥ 100 | ≤ 2 |
| N#Cc1c(NC(=O)/C=C/c2ccccc2)sc2c1CCN(C(=O)OCC(O)CO)C2 (centres unmarked) [Example 128, 3-Cyano-2-((E)-3-phenyl-allanoylamino)-4,7-dihydro-5H-thieno[2,3-c]pyridine-6-carboxylic acid 2,3-dihydroxy-propyl ester] | ≥ 100 | ≤ 2 |
| CCOC(=O)N1CCc2c(sc(NC(=O)/C=C/c3cccc(OC)c3)c2C#N)C1 [Example 19, 3-Cyano-2-[(E)-3-(3-methoxy-phenyl)-allanoylamino]-4,7-dihydro-5H-thieno[2,3-c]pyridine-6-carboxylic acid ethyl ester] | > 100 | ≤ 2 |
| CCOC(=O)N1CCc2c(sc(NC(=O)/C=C/c3ccc(C)cc3)c2C#N)C1 [Example 27, 3-Cyano-2-((E)-3-p-tolyl-allanoylamino)-4,7-dihydro-5H-thieno[2,3-c]pyridine-6-carboxylic acid ethyl ester] | > 100 | ≤ 2 |
| CCOC(=O)N1CCc2c(sc(NC(=O)/C=C/c3ccccc3OC(C)=O)c2C#N)C1 [Example 69, 2-[(E)-3-(2-Acetoxy-phenyl)-allanoylamino]-3-cyano-4,7-dihydro-5H-thieno[2,3-c]pyridine-6-carboxylic acid ethyl ester] | ≥ 50 | ≤ 0.5 |
| CCSC(=O)N1CCc2c(sc(NC(=O)/C=C/c3ccccc3)c2C#N)C1 [Example 35, 3-Cyano-2-((E)-3-phenyl-allanoylamino)-4,7-dihydro-5H-thieno[2,3-c]pyridine-6-carbothioic acid S-ethyl ester] | > 100 | ≤ 2 |
| CCOC(=O)N1CCc2c(sc(NC(=O)/C=C/c3cccs3)c2C#N)C1 [Example 8, 3-Cyano-2-((E)-3-thiophen-2-yl-allanoylamino)-4,7-dihydro-5H-thieno[2,3-c]pyridine-6-carboxylic acid ethyl ester] | > 100 | ≤ 2 |
| CCOC(=O)N1CCc2c(sc(NC(=O)/C=C/c3ccccc3Oc3ccccc3)c2C#N)C1 [Example 104, 3-Cyano-2-[(E)-3-(2-phenoxy-phenyl)-allanoylamino]-4,7-dihydro-5H-thieno[2,3-c]pyridine-6-carboxylic acid ethyl ester] | ≥ 100 | ≤ 2 |
| COc1ccccc1/C=C/C(=O)Nc1sc2c(c1C#N)CCN(C(=O)OCCc1ccccn1)C2 [Example 139, 3-Cyano-2-[(E)-3-(2-methoxy-phenyl)-allanoylamino]-4,7-dihydro-5H-thieno[2,3-c]pyridine-6-carboxylic acid 2-pyridin-2-yl-ethyl ester] | ≥ 100 | ≤ 2 |
| COC(=O)COC(=O)N1CCc2c(sc(NC(=O)/C=C/c3ccccc3)c2C#N)C1 [Example 133, 3-Cyano-2-((E)-3-phenyl-allanoylamino)-4,7-dihydro-5H-thieno[2,3-c]pyridine-6-carboxylic acid methoxycarbonylmethyl ester] | ≥ 100 | ≤ 2 |
| CCCCCSC(=O)N1CCc2c(sc(NC(=O)/C=C/c3ccccc3)c2C#N)C1 [Example 49, 3-Cyano-2-((E)-3-phenyl-allanoylamino)-4,7-dihydro-5H-thieno[2,3-c]pyridine-6-carbothioic acid S-pentyl ester] | ≥ 100 | ≤ 2 |
| CCCOc1ccccc1/C=C/C(=O)Nc1sc2c(c1C#N)CCN(C(=O)OCC)C2 [Example 99, 3-Cyano-2-[(E)-3-(2-propoxy-phenyl)-allanoylamino]-4,7-dihydro-5H-thieno[2,3-c]pyridine-6-carboxylic acid ethyl ester] | ≥ 50 | ≤ 0.5 |
